Columns and labels:
[1] = target: GDP-bound KRAS wild-type protein (Homo sapiens, UniProt P01116); assay: Binding to KRAS by surface plasmon resonance (SPR), Single Cycle Kinetics; conditions: SPR Single Cycle Kinetics, GDP-bound KRAS wild-type protein, 1:1 binding model; read-out: KRAS KD
[2] = target: GDP-bound NRAS wild-type protein (Homo sapiens, UniProt P01111); assay: Binding to NRAS by surface plasmon resonance (SPR), Single Cycle Kinetics; conditions: SPR, GDP-bound NRAS wild-type protein vs GDP-bound KRAS wild-type protein
[3] = target: GDP-bound HRAS wild-type protein (Homo sapiens, UniProt P01112); assay: Binding to HRAS by surface plasmon resonance (SPR), Single Cycle Kinetics; conditions: SPR, GDP-bound HRAS wild-type protein vs GDP-bound KRAS wild-type protein
Sequence of GDP-bound HRAS wild-type protein (P01112 whole entry): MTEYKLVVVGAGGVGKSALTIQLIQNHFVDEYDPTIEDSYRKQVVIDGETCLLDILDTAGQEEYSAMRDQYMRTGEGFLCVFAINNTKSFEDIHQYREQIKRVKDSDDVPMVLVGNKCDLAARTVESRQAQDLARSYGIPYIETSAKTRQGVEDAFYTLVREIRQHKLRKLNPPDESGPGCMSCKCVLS

Sequence of GDP-bound KRAS wild-type protein (P01116 whole entry): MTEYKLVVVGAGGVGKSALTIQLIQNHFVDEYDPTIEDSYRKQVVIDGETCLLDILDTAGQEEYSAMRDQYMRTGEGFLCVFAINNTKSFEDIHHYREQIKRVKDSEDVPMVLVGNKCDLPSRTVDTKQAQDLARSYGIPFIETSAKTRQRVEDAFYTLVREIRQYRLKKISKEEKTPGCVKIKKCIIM
Sequence of GDP-bound NRAS wild-type protein (P01111 whole entry): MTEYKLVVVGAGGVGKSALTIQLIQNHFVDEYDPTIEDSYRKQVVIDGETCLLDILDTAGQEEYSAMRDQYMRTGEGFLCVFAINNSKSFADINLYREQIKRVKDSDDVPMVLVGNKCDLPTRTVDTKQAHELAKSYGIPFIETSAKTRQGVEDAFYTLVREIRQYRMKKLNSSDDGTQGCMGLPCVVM

Row | Compound | Kd [1] | NRAS/KRAS (ratio of KD value with respect to NRAS to KD value with respect to KRAS) [2] | HRAS/KRAS (ratio of KD value with respect to HRAS to KD value with respect to KRAS) [3]
1 | CC[C@H](C)[C@@H]1NC(=O)[C@H](CC(C)C)N(C)C(=O)C[C@@H](C(=O)N2CCOCC2)NC(=O)[C@H](C2CCCC2)N(C)C(=O)C2(CCCC2)NC(=O)[C@@H]2CCCN2C(=O)[C@H](CCc2cc(F)c(C(F)(F)F)c(F)c2)NC(=O)CN(C)C(=O)[C@H](Cc2ccc(C(F)(F)F)cc2)N2CCCCC[C@@H](C2=O)N(C)C(=O)CN(C)C1=O [PP0479] | 29 nM | B (a compound having 3 or more and less than 10 is denoted as B) | B (a compound having 3 or more and less than 10 is denoted as B)
2 | CC[C@H](C)[C@@H]1NC(=O)[C@H](CC(C)C)N(C)C(=O)C[C@@H](C(=O)N2CCOCC2)N(C)C(=O)[C@H](C2CCCC2)N(C)C(=O)C2(CCCC2)NC(=O)[C@@H]2CCCN2C(=O)[C@H](CCc2cc(F)c(C(F)(F)F)c(F)c2)NC(=O)CN(C)C(=O)[C@H](Cc2ccc(C(F)(F)F)cc2)N2CCCCC[C@@H](C2=O)N(C)C(=O)[C@H](C)NC1=O [PP0481] | 850 nM | B (a compound having 3 or more and less than 10 is denoted as B) | B (a compound having 3 or more and less than 10 is denoted as B)
3 | CC[C@H](C)[C@@H]1NC(=O)[C@H](CC(C)C)N(C)C(=O)C[C@@H](C(=O)N2CCOCC2)N(C)C(=O)[C@H](C2CCCC2)N(C)C(=O)C2(CCCC2)NC(=O)[C@@H]2CCCN2C(=O)[C@H](CCc2cc(F)c(C(F)(F)F)c(F)c2)NC(=O)CN(C)C(=O)[C@H](Cc2ccc(C(F)(F)F)cc2)N2CCCCC[C@@H](C2=O)N(C)C(=O)CN(CC)C1=O [PP0483] | 34 nM | B (a compound having 3 or more and less than 10 is denoted as B) | B (a compound having 3 or more and less than 10 is denoted as B)
4 | CC[C@H](C)[C@@H]1NC(=O)[C@H](CC(C)C)N(C)C(=O)C[C@@H](C(=O)N2CCOCC2)N(C)C(=O)[C@H](C2CCCC2)N(C)C(=O)C2(CCCC2)NC(=O)[C@@H]2CCCN2C(=O)[C@H](CCc2cc(F)c(C(F)(F)F)c(F)c2)NC(=O)CN(C)C(=O)[C@H](Cc2ccc(C(F)(F)F)cc2)N2CCCCC[C@@H](C2=O)N(C)C(=O)[C@@H]2CCN2C1=O [PP0484] | 3.2 nM | A (a compound having 10 or more and less than 20 is denoted as A) | B (a compound having 3 or more and less than 10 is denoted as B)
5 | CC[C@H](C)[C@@H]1NC(=O)[C@H](CC(C)C)N(C)C(=O)C[C@@H](C(=O)N2CCOCC2)N(C)C(=O)[C@H](C2CCCC2)N(C)C(=O)C2(CCCC2)NC(=O)[C@@H]2CCCN2C(=O)[C@H](CCc2cc(F)c(C(F)(F)F)c(F)c2)NC(=O)CN(C)C(=O)[C@H](Cc2ccc(C(F)(F)F)cc2)N2CCCCC[C@@H](C2=O)N(C)C(=O)[C@@H]2CCCN2C1=O [PP0485] | 28 nM | A (a compound having 10 or more and less than 20 is denoted as A) | B (a compound having 3 or more and less than 10 is denoted as B)
6 | CC[C@H](C)[C@@H]1NC(=O)[C@H](C)N(C)C(=O)C[C@@H](C(=O)N2CCOCC2)N(C)C(=O)[C@H](C2CCCC2)N(C)C(=O)C2(CCCC2)NC(=O)[C@@H]2CCCN2C(=O)[C@H](CCc2cc(F)c(C(F)(F)F)c(F)c2)NC(=O)CN(C)C(=O)[C@H](Cc2ccc(C(F)(F)F)cc2)N2CCCCC[C@@H](C2=O)N(C)C(=O)CN(C)C1=O [PP0487] | 1.7 nM | B (a compound having 3 or more and less than 10 is denoted as B) | B (a compound having 3 or more and less than 10 is denoted as B)
7 | CC[C@H](C)[C@@H]1NC(=O)[C@H](CC)N(C)C(=O)C[C@@H](C(=O)N2CCOCC2)N(C)C(=O)[C@H](C2CCCC2)N(C)C(=O)C2(CCCC2)NC(=O)[C@@H]2CCCN2C(=O)[C@H](CCc2cc(F)c(C(F)(F)F)c(F)c2)NC(=O)CN(C)C(=O)[C@H](Cc2ccc(C(F)(F)F)cc2)N2CCCCC[C@@H](C2=O)N(C)C(=O)CN(C)C1=O [PP0488] | 2.8 nM | A (a compound having 10 or more and less than 20 is denoted as A) | B (a compound having 3 or more and less than 10 is denoted as B)
8 | CC[C@H](C)[C@@H]1NC(=O)[C@H](CC(C)C)N(C)C(=O)C[C@@H](C(=O)N2CCOCC2)N(C)C(=O)[C@H](C2CCCC2)N(C)C(=O)C2(CCCC2)NC(=O)[C@@H]2CCCN2C(=O)[C@H](CCc2cc(F)c(C(F)(F)F)c(F)c2)NC(=O)CN(C)C(=O)[C@H](Cc2ccc(C(F)(F)F)cc2)N2CCCCC[C@@H](C2=O)N(C)C(=O)CN(C)C1=O [PP0490] | 2.4 nM | B (a compound having 3 or more and less than 10 is denoted as B) | B (a compound having 3 or more and less than 10 is denoted as B)
9 | CC[C@H](C)[C@@H]1NC(=O)[C@H](CC(C)C)N(C)C(=O)C[C@@H](C(=O)N2CCOCC2)N(C)C(=O)[C@H](C2CCCC2)N(C)C(=O)C2(CCCC2)NC(=O)[C@@H]2CC(F)(F)CN2C(=O)[C@H](CCc2cc(F)c(C(F)(F)F)c(F)c2)NC(=O)CN(C)C(=O)[C@H](Cc2ccc(C(F)(F)F)cc2)N2CCCCC[C@@H](C2=O)N(C)C(=O)CN(C)C1=O [PP0491] | 1.1 nM | B (a compound having 3 or more and less than 10 is denoted as B) | B (a compound having 3 or more and less than 10 is denoted as B)
10 | CCO[C@@H]1C[C@H]2C(=O)NC3(CCCC3)C(=O)N(C)[C@@H](C3CCCC3)C(=O)N(C)[C@H](C(=O)N3CCOCC3)CC(=O)N(C)[C@@H](CC(C)C)C(=O)N[C@@H]([C@@H](C)CC)C(=O)N(C)CC(=O)N(C)[C@H]3CCCCCN(C3=O)[C@@H](Cc3ccc(C(F)(F)F)cc3)C(=O)N(C)CC(=O)N[C@@H](CCc3cc(F)c(C(F)(F)F)c(F)c3)C(=O)N2C1 [PP0492] | 1.2 nM | B (a compound having 3 or more and less than 10 is denoted as B) | B (a compound having 3 or more and less than 10 is denoted as B)
11 | CC[C@H](C)[C@@H]1NC(=O)[C@H](CC(C)C)N(C)C(=O)C[C@@H](C(=O)N2CCOCC2)N(C)C(=O)[C@H](C2CCCC2)N(C)C(=O)C2(CCCC2)NC(=O)[C@@H]2CC(=O)CN2C(=O)[C@H](CCc2cc(F)c(C(F)(F)F)c(F)c2)NC(=O)CN(C)C(=O)[C@H](Cc2ccc(C(F)(F)F)cc2)N2CCCCC[C@@H](C2=O)N(C)C(=O)CN(C)C1=O [PP0493] | 2 nM | B (a compound having 3 or more and less than 10 is denoted as B) | B (a compound having 3 or more and less than 10 is denoted as B)
12 | CC[C@H](C)[C@@H]1NC(=O)[C@H](CC(C)C)N(C)C(=O)C[C@@H](C(=O)N2CCOCC2)N(C)C(=O)[C@H](C2CCCC2)N(C)C(=O)C2(CCCC2)NC(=O)[C@@H]2C[C@H](OC)CN2C(=O)[C@H](CCc2cc(F)c(C(F)(F)F)c(F)c2)NC(=O)CN(C)C(=O)[C@H](Cc2ccc(C(F)(F)F)cc2)N2CCCCC[C@@H](C2=O)N(C)C(=O)CN(C)C1=O [PP0495] | 5.1 nM | A (a compound having 10 or more and less than 20 is denoted as A) | B (a compound having 3 or more and less than 10 is denoted as B)
13 | CC[C@H](C)[C@@H]1NC(=O)[C@H](CC(C)C)N(C)C(=O)C[C@@H](C(=O)N2CCOCC2)N(C)C(=O)[C@H](C2CCCC2)N(C)C(=O)C2(CC2)NC(=O)[C@@H]2CCCN2C(=O)[C@H](CCc2cc(F)c(C(F)(F)F)c(F)c2)NC(=O)CN(C)C(=O)[C@H](Cc2ccc(C(F)(F)F)cc2)N2CCCCC[C@@H](C2=O)N(C)C(=O)CN(C)C1=O [PP0496] | 4.8 nM | B (a compound having 3 or more and less than 10 is denoted as B) | B (a compound having 3 or more and less than 10 is denoted as B)
14 | CC[C@H](C)[C@@H]1NC(=O)[C@H](CC(C)C)N(C)C(=O)C[C@@H](C(=O)N2CCOCC2)N(C)C(=O)[C@H](C2CCCC2)N(C)C(=O)C2(CCC2)NC(=O)[C@@H]2CCCN2C(=O)[C@H](CCc2cc(F)c(C(F)(F)F)c(F)c2)NC(=O)CN(C)C(=O)[C@H](Cc2ccc(C(F)(F)F)cc2)N2CCCCC[C@@H](C2=O)N(C)C(=O)CN(C)C1=O [PP0497] | 0.85 nM | B (a compound having 3 or more and less than 10 is denoted as B) | B (a compound having 3 or more and less than 10 is denoted as B)
15 | CC[C@H](C)[C@@H]1NC(=O)[C@H](CC(C)C)N(C)C(=O)C[C@@H](C(=O)N2CCOCC2)N(C)C(=O)[C@H](C2CCCC2)N(C)C(=O)C2(CCCCC2)NC(=O)[C@@H]2CCCN2C(=O)[C@H](CCc2cc(F)c(C(F)(F)F)c(F)c2)NC(=O)CN(C)C(=O)[C@H](Cc2ccc(C(F)(F)F)cc2)N2CCCCC[C@@H](C2=O)N(C)C(=O)CN(C)C1=O [PP0498] | 18 nM | B (a compound having 3 or more and less than 10 is denoted as B) | B (a compound having 3 or more and less than 10 is denoted as B)

— patent US20240158446A1, “CYCLIC COMPOUND HAVING SELECTIVE INHIBITORY ACTION ON KRAS OVER HRAS AND NRAS” (CHUGAI SEIYAKU KABUSHIKI KAISHA, priority 2021, published 2024)
